Key:
Xi-GFP mEpiSCs [1] = experiment: Flow cytometric analysis of GFP and CD31 expression in Xi-GFP mEpiSCs; format: cell-based, mouse; conditions: for LIF induced Xi-reactivation (GFP/CD31 double positive cells): LIF-containing mEpiSC medium with or without Activin A and bFGF; for % of GFP/CD31 double positive cells compared with LIF alone: added to N2B27 medium containing LIF
Description: To more quantitatively assess the proportion of GFP positive cells under these three culture conditions, Fluorescence Activated Cell Sorting (FACS) was employed. For flow cytometric analyses, Xi-GFP mEpiSCs were dissociated into single cell suspensions with Accutase. The single cells were stained with a CD31 (PECAM) antibody (Clone MEC13.3/BD Bioscience (Franklin Lakes, N.J., USA)) conjugated with allophycocyanin, or APC. The stained cells were analyzed using MACSQuant VYB (Miltenyi Biotec, San Diego, Calif., USA) and FlowJo (FlowJo LLC, Ashland, Oreg., USA) software. […] In the LIF+2i and SNL-CM, the GFP^+ populations were also CD31^+, a marker for mouse naïve pluripotent stem cells (FIG. 1, panel C).
Xi-GFP mEpiSCs were dissociated with Accutase into single cell suspensions, and the single cells were seeded on a fibronectin-coated plate in the Activin A and bFGF-containing medium with two different cell densities (20,000 cells or 3,000 cells/well of a 6-well plate) one day before starting conversion experiments. Twenty-four hours after the seeding, fresh primed media was replenished as a negative control or changed to naïve medium. Assay medium was changed every 24 hours and GFP fluorescent was checked daily by microscopic inspection for eight (with 20,000 starting cells) to 13 days (with 3,000 starting cells).
The naïve media contained 1,000 units LIF (Millipore), 10 ng/ml BMP4 (R&D systems), 64 μg/ml L-ascorbic acid 2-phosphate (Sigma), 10 nM to 100 nM LPA (Avanti Polar Lipids (Alabaster, Ala., USA)), and/or 100 nM OMPT (Avanti Polar Lipids (Alabaster, Ala., USA)) in N2B27 basal medium purchased from StemCells Inc (Palo Alto, Calif., USA) or prepared in house for use in FIGS. 4 and 5. The in house N2B27 medium consists of 500 ml DMEM/F12+GlutaMax (Life Technologies (Carlsbad, Calif., USA), 500 ml Neurobasal medium (Life Technologies (Carlsbad, Calif., USA)), 5 ml N2 supplement (Life Technologies (Carlsbad, Calif., USA)), 10 ml B27 supplement (Life Technologies (Carlsbad, Calif., USA)), 666 μl 7.5% BSA Fraction V (Life Technologies (Carlsbad, Calif., USA)) and 5 ml GlutaMax (Life Technologies (Carlsbad, Calif., USA)/1 liter. At the end of the conversion experiments, the conversion efficiencies were evaluated by counting GFP^+ cell clusters or by flow cytometer.

hiPSCs [2] = experiment: Reversion of primed integration-free hiPSCs in lipid containing reversion media; format: cell-based, human
Description: Human iPSCs were generated with episomal vectors expressing Oct4, Sox2, Klf4, myc, Lin28 and shRNA against […] using the methods described by Okita et al. (2011) Nature Methods 8(5):409-412. The hiPSCs were grown in primed media containing bFGF and TGF-β in StemFit basal medium (or mTeSR orE8). Primed hiPSCs were then switched to reversion media and cultured on laminin-511 under hypoxic conditions. The reversion media contained 10 ng/mL LIF, 10 ng/mL Activin A, 100 ng/mL bFGF, 1 μM PD0325901 MEK inhibitor, 1 μM CHIR99021 GSK3β inhibitor, and 2 mM N-acetyl cysteine in StemFit basal medium with various concentrations of lipids (2 μM OMPT, 1 μM OMPT, 1 μM OMPT+20 nM LPA, or no lipids). After 5 to 7 days, three-dimensional dome shaped colonies, characteristic of naïve pluripotent stem cells, were observed. […] The naïve cells also expressed NANOG, KLF4, KLF17 and TFCP2L1, markers for naïve human pluripotent stem cells (FIG. 9).

hiPSCs [3] = experiment: Reversion of primed hiPSCs containing episomal reprogramming factors in reversion media; format: cell-based, human; conditions: for conversion to cells with features of naïve pluripotency (dome shaped colonies): 1 μM OMPT, 10 ng/mL LIF in StemFit, no bFGF, TGF-β, laminin-511
Text: These naive-like cells formed three-dimensional dome shaped colonies characteristic of naïve pluripotent stem cells and very different from the colony morphology of primed hiPSCs. […] In addition, they provide the basis for further investigation of whether modulating the LPA-LPAR-RHO signaling axis can be used to generate and maintain human naïve pluripotent stem cells.

[4] = test system: primed pluripotent stem cells; experiment: Cell morphology/toxicity of primed PSCs grown in various concentrations of LPA or OMPT
Description: To optimize the concentration of LPA and OMPT, primed pluripotent stem cells were grown in various concentrations of LPA or OMPT.

Xi-GFP mEpiSCs [5] = experiment: Xi-reactivation in Xi-GFP mEpiSC reporter line, GFP positive clusters by fluorescence microscopy; format: cell-based, mouse; conditions: exogenous addition to SNL-CM and non-CM+LIF
Description: During somatic cell reprogramming the human Xi is reliably reactivated in hiPSCs reprogrammed on SNL feeder cells. […] It was first determined whether the culture conditions that promoted reactivation of the Xi during reprogramming also promoted Xi-reactivation of mouse EpiSCs, which are XaXi. Results of culturing an X-GFP mEpiSC reporter line, in which the green fluorescent protein (GFP) gene is located on the X-chromosome in different media were assayed by fluorescence microscopy. Gillich et al., (2012) Cell Stem Cell 10(4):[…], Bao et al., (2009) Nature 461(7268):1292-1295. Xi-GFP mEpiSCs were kindly provided by Drs. Azim Surani and Siqin Bao and were routinely maintained on a fibronectin (Sigma, St. Louis, Mo., USA)-coated plate (feeder free condition) in N2B27 basal medium (Ndiff 227 medium from StemCells Inc (Palo Alto, Calif., USA) and later from Clontech (Mountain View, Calif., USA) supplemented with 20 ng/ml Activin A (R&D systems (Minneapolis, Minn., USA)) and 12 ng/ml bFGF (Millipore (Billerica, Mass., USA)). Cells were passaged every two to three days at a 1:20 dilution from a previous culture after detached/scraped and dissociated with Accutase (Millipore (Billerica, Mass., USA)).
Cells remain GFP negative when cultured under feeder-free mEpiSC conditions, N2B27 medium containing Activin A and bFGF on fibronectin coated plates (FIG. 1, panels A and B). […]

Cc1noc(-c2ccc(CSCCC(=O)O)cc2)c1NC(=O)OC(C)c1ccccc1Cl (stereo not shown) [Ki16425]
% of GFP^+ cells (Xi-GFP mEpiSCs [1]; added to medium containing LIF+LPA or LIF alone): significantly reduces

NC(=O)c1ccc(-c2nc(-c3ccc4c(c3)OCO4)c(-c3ccccn3)[nH]2)cc1 [SB431542]
% of GFP/CD31 double positive cells (Xi-GFP mEpiSCs [1]; added to MEF-CM containing LIF): enhances induction of the double positive cells

CCCCCCCC/C=C\CCCCCCCC(=O)OC[C@H](COP(O)(O)=S)OC [OMPT, 1-oleoyl-2-methyl-sn-glycero-3-phosphothioate]
time for which three-dimensional dome shaped colonies were maintained (hiPSCs [2]; 2 μM or 1 μM OMPT, or 1 μM OMPT+20 nM LPA, laminin-511, hypoxic, approximately five passages): more than one month
conversion of hiPSCs to cells with characteristics of naïve PSCs (colony morphology) (hiPSCs [2]; compared to control media containing no lipids, FIG. 7): converts the hiPSCs to cells with characteristics of naïve PSCs
conversion to cells with features of naïve pluripotency (dome shaped colonies) (hiPSCs [3]): cells with features of naïve pluripotency were observed

bFGF: basic fibroblast growth factor
LIF induced Xi-reactivation (GFP/CD31 double positive cells) (Xi-GFP mEpiSCs [1]): negative effects

lysophosphatidic acid [LPA]
conversion to cells with features of naïve pluripotency (dome shaped colonies) (hiPSCs [3]): converted to cells with characteristics of naïve PSCs
NANOG expression of naive-like cells (hiPSCs [3]; antibody staining, FIG. 6): continue to express NANOG
induction of GFP^+ cells (Xi-GFP mEpiSCs [1]; N2B27, without LIF): induced GFP^+ cells, albeit less efficiently than with LIF
toxicity to primed pluripotent stem cells ([4]; 50 nM and 100 nM): toxic
concentration at which cell toxicities were observed ([4]; FIG. 8): ≥ 10 nM

O=C1O[C@H]([C@@H](O)CO)C(O)=C1O [ascorbic acid]
% of GFP/CD31 double positive cells compared with LIF alone (Xi-GFP mEpiSCs [1]): increased

B1: Activin A: cytokine required for maintaining primed pluripotency in mEpiSCs (protein, UniProt Q04998 309-424, looked up)
Inhibin beta A chain: GLECDGKVNICCKKQFFVSFKDIGWNDWIIAPSGYHANYCEGECPSHIAGTSGSSLSFHSTVINHYRMRGHSPFANLKSCCVPTKLRPMSMLYYDDGQNIIKKDIQNMIVEECGCS
modifications: Inhibin beta A chain
numbers of GFP+ clusters (Xi-GFP mEpiSCs [5]): significantly reduced
LIF induced Xi-reactivation (GFP/CD31 double positive cells) (Xi-GFP mEpiSCs [1]): negative effects

B2: BMP4: bone morphogenetic protein (protein, UniProt P12644 293-408, looked up)
Bone morphogenetic protein 4: SPKHHSQRARKKNKNCRRHSLYVDFSDVGWNDWIVAPPGYQAFYCHGDCPFPLADHLNSTNHAIVQTLVNSVNSSIPKACCVPTELSAISMLYLDEYDKVVLKNYQEMVVEGCGCR
% of GFP/CD31 double positive cells compared with LIF alone (Xi-GFP mEpiSCs [1]): dramatically increased
GFP/CD31 double positive cells (Xi-GFP mEpiSCs [1]; alone in N2B27 basal medium (without bFGF or Activin A), data not shown): did not induce GFP/CD31 double positive cells

From US20180142206A1, “REVERSION OF PRIMED PLURIPOTENT STEM CELLS TO NAIVE PLURIPOTENT STEM CELLS” (The J. David Gladstone Institutes, A Testamentary Trust …, priority 2015, published 2018)
